In ChEMBL document CHEMBL6182898, “Design, synthesis and bioevaluation of novel hydrazide derivatives as enhancers of immunotherapy and DNA-damage response in antitumor therapy” (Eur J Med Chem, 2025):
pIC50: −log10 of the molar value. Active and inactive are the calls of the source. The calls are words filed in the database; no cut-off is given here.

Assays:
K562 [1] = assay: Antiproliferative activity against human K562 cells incubated for 72 hrs by CCK8 assay; assay type: functional, cell-based; conditions: K562, 72 h
B16-F10 [2] = assay: Inhibition of cell migration in mouse B16-F10 cells at 5 uM by transwell assay relative to control; assay type: functional
B16-F10 [3] = assay: Anti-migratory activity in mouse B16-F10 cells at 1.25 to 5 uM measured after 36 hrs by wound healing assay relative to control; assay type: functional; conditions: dose 1.25-5 µM
4T1 = assay: Antiproliferative activity against mouse 4T1 cells incubated for 72 hrs by MTT assay; assay type: functional, cell-based; conditions: 4T1, 72 h
HCT-116 [4] = assay: cells; assay type: functional; conditions: Homo sapiens, time 72 hrs
[5] = target: T1, Histone deacetylase 3 (Mus musculus) (UniProt O88895); assay: Inhibition of HDAC3 in mouse B16-F10 cells assessed as increase in Ac-H3 level incubated for 24 hrs by Western blot analysis; assay type: cell-based; conditions: dose 2.5-10 µM
T1 sequence (whole entry): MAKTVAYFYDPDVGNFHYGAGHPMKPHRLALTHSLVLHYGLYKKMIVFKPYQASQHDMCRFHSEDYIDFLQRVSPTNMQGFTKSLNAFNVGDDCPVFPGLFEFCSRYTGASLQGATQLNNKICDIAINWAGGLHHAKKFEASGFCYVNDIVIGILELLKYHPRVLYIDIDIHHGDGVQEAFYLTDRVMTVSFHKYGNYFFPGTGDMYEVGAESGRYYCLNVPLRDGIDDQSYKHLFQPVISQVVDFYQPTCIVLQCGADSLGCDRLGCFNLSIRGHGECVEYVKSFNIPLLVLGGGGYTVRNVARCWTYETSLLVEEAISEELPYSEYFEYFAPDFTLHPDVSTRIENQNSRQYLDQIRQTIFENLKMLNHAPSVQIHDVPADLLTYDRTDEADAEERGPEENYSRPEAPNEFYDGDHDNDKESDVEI

[6] = target: T1, Histone deacetylase 3 (Mus musculus); assay: Inhibition of HDAC3 in mouse B16-F10 cells assessed as reduction in PD-L1 level at 2.5 uM incubated for 24 hrs by immunofluorescence based analysis; assay type: cell-based
B16-F10 [7] = assay: Induction of antitumor immunity in mouse B16-F10 cells assessed as reduction in PD-L1 level incubated for 24 hrs by Western blot analysis; assay type: functional, cell-based; conditions: dose 2.5-10 µM
Histone deacetylase 8 = target: T2, Histone deacetylase 8 (Homo sapiens, UniProt Q9BY41); assay: Inhibition of HDAC8 (unknown origin)
T2 sequence (Q9BY41 whole entry): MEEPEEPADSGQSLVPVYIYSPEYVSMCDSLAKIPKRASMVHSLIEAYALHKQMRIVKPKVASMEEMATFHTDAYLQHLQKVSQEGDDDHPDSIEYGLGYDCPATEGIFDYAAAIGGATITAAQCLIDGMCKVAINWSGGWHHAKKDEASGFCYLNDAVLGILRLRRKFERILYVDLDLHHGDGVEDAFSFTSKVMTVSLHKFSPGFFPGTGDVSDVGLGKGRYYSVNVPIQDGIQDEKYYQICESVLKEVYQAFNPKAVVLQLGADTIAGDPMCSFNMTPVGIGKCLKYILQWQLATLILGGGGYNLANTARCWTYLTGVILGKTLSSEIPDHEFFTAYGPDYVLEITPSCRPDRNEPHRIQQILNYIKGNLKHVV

B16-F10 [8] = assay: Induction of antitumor immunity in mouse B16-F10 cells assessed as decrease in NCOR2 level at 2.5 to 10 uM incubated for 24 hrs by Western blot analysis; assay type: functional, cell-based; conditions: dose 2.5-10 µM
Histone deacetylase 3 = Histone deacetylase 3 (Homo sapiens, UniProt O15379); assay: Inhibition of HDAC3 (unknown origin)
Histone deacetylase 3, sequence (O15379 whole entry): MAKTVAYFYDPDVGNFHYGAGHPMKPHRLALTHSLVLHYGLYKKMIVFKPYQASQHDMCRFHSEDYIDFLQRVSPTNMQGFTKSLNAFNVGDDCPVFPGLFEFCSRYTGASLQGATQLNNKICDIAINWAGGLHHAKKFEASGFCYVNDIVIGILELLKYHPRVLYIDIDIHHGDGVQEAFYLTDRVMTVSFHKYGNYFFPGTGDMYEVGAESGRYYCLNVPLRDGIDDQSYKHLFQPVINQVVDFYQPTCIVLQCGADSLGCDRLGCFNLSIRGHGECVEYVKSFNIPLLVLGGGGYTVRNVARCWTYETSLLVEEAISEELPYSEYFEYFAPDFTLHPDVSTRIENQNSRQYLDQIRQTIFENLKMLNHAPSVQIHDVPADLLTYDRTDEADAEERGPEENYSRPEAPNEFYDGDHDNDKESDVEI

Histone deacetylase 1 = Histone deacetylase 1 (Homo sapiens, UniProt Q13547); assay: Inhibition of HDAC1 (unknown origin)
Histone deacetylase 1, sequence (Q13547 whole entry): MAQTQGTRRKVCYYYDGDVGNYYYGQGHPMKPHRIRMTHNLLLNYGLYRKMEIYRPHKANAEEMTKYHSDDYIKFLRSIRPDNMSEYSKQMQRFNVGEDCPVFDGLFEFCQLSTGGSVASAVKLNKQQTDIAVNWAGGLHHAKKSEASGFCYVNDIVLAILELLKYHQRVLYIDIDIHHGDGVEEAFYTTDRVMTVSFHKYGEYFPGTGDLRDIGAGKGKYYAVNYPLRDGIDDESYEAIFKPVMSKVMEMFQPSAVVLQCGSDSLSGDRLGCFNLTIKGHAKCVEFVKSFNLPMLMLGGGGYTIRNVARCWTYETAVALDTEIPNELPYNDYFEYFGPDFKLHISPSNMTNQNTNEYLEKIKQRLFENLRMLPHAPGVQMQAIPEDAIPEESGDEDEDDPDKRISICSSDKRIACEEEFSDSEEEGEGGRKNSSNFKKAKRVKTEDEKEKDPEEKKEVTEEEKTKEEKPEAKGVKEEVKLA

HCT-116 [9] = assay: Antiproliferative activity against human HCT-116 cells incubated for 72 hrs by MTT assay; assay type: functional, cell-based; conditions: HCT-116, 72 h
B16-F10 [10] = assay: Induction of cell cycle arrest in mouse B16-F10 cells assessed as cell accumulation incubated for 24 hrs by PI staining based flow cytometry; assay type: functional; conditions: dose 2.5-10 µM
B16-F10 [11] = assay: Induction of apoptosis in mouse B16-F10 cells incubated for 48 hrs by Annexin V-FITC/PI staining based flow cytometry; assay type: functional, cell-based; conditions: dose 2.5-10 µM
[12] = target: T1, Histone deacetylase 3 (Mus musculus); assay: Inhibition of HDAC3 in mouse B16-F10 cells assessed as increase in Ac-H3 level at 2.5 uM incubated for 24 hrs by immunofluorescence based analysis; assay type: cell-based
SK-OV-3 = assay: cells; assay type: functional; conditions: Homo sapiens, time 72 hrs
B16-F10 [13] = assay: Upregulation of Ac-alpha-tubulin level in mouse B16-F10 cells at 2.5 to 10 uM incubated for 24 hrs by Western blot analysis; assay type: functional, cell-based; conditions: dose 2.5-10 µM
B16-F10 [14] = assay: Antiproliferative activity against mouse B16-F10 cells incubated for 72 hrs by MTT assay; assay type: functional, cell-based; conditions: B16-F10, 72 h
K562 [15] = assay: cells; assay type: functional; conditions: Homo sapiens, time 72 hrs

Row | pIC50 (K562 [1]) | pIC50 (4T1) | inhibition [5] | inhibition [6] | pIC50 (Histone deacetylase 8) | pIC50 (Histone deacetylase 3) | pIC50 (Histone deacetylase 1) | pIC50 (HCT-116 [9]) | inhibition [12] | pIC50 (B16-F10 [14]) | Structure (SMILES) | inhibition at 5 µM (B16-F10 [2]) [%] | Activity (B16-F10 [3]) [%] | inhibition at 10 µM (HCT-116 [4]) [%] | Activity (B16-F10 [7]) | Activity (B16-F10 [8]) | Activity (B16-F10 [10]) | Activity (B16-F10 [11]) | inhibition at 10 µM (SK-OV-3) [%] | Activity (B16-F10 [13]) | inhibition at 10 µM (K562 [15]) [%]
1 | 5.97 | 5.01 | Dose-dependent-effect | Active | < 5.00 | 6.51 | 5.33 | 5.48 | Active | 5.28 | CCCNNC(=O)CCCCCCNC(=O)c1cnc(-c2ccc(NC(=O)OC(C)(C)C)cc2)s1 | > 70 | >80 | 93.6 | Dose-dependent-effect; Activity Was Similar To Ms-275 | Active | Dose-dependent-effect | Dose-dependent-effect; Activity Similar To Vorinostat | < 50 | inactive | 73.1
2 | 5.34 | 5.12 | Dose-dependent-effect | Active | < 5.00 | 6.40 | 5.80 | 5.78 | Active | 5.22 | CCCNNC(=O)c1ccc(NC(=O)c2cnc(-c3ccc(OC(F)(F)F)cc3)s2)cc1 | > 70 | >80 | < 50 | Dose-dependent-effect; Activity Was Similar To Ms-275 | Active | Dose-dependent-effect | Dose-dependent-effect; Activity Similar To Vorinostat | < 50 | inactive | 52.6
